In patent US20240391923A1, “METHIONINE ADENOSYLTRANSFERASE 2A INHIBITOR FOR TREATING MTAP DELETION-TYPE CANCER” (SUZHOU GENHOUSE BIO CO., LTD., priority 2022, published 2024):
Where two headings read alike, the source gives them in different places.

How the values were obtained:
[1] = tested on: SDMA in HCT116-MTAP-knockout cell line; assay: Cell symmetric dimethylarginine (SDMA) test, In-cell Western, HCT116-MTAP-knockout; assay type: cell-based; settings: Homo sapiens, 96 h
[2] = tested on: SDMA in human colon cancer cell line HCT116; assay: Cell symmetric dimethylarginine (SDMA) test, In-cell Western, HCT116 (MTAP wild-type); assay type: cell-based; settings: Homo sapiens, HCT-116, 96 h
Summary of the method: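 SDMA level, an indirect readout of cellular MAT2A inhibition, measured by In-cell Western as background-subtracted 800/700 nm signal against DRAQ5. Cells exposed 4 days to six 1:4-diluted doses from 6 μM; inhibition relative to DMSO, IC50 from sigmoidal fit.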

[3] = tested on: HCT116-MTAP-knockout (−/−) cell strain; assay: Tumor cell proliferation inhibition assay (CellTiter-Glo), HCT116-MTAP-knockout (-/-); assay type: cell-based; settings: Homo sapiens, 120 h, 5-day treatment
Summary of the method: (§1)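 Read-out: CellTiter-Glo ATP luminescence after 5-day compound exposure at 37° C./5% CO2. Dosing began 24 h post-seeding, 10 μM top, 1:3 dilutions, 10 points; DMSO-treated cells as reference.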

[4] = tested on: HCT116-MTAP wild-type (+/+)-cell strain; assay: Tumor cell proliferation inhibition assay (CellTiter-Glo), HCT116-MTAP wild-type (+/+); assay type: cell-based; settings: Homo sapiens, 120 h, 5-day treatment
Summary of the method: as §1

DOHH-2 cell strain = assay: Tumor cell proliferation inhibition assay (CellTiter-Glo), DOHH-2; assay type: cell-based; settings: Homo sapiens, 120 h, DOHH-2 cells, 5-day treatment
Method: After the HCT116-MTAP-knockout (−/−) cell strain, the HCT116-MTAP wild-type(+/+)-cell strain, the DOHH-2 cell strain, or the Hut-78 cell strain was treated with the test compound for 5 days, the ATP level was measured using a CellTiter-Glo kit of Promega to evaluate the inhibition of the test compound against the growth of the tumor cell strain.
In the present application, the HCT116-MTAP-knockout (−/−) cell strain, the HCT116-MTAP wild-type (+/+)-cell strain, the DOHH-2 cell strain, or the Hut-78 cell strain was seeded into a 96-well cell culture plate at an appropriate cell density. After 24 h, the cells were treated using the test compounds diluted 1:3 fold at the highest concentration of 10 μM for 10 gradients, and a DMSO treatment group was set up separately. The cells were cultured in a 37° C./5% CO2 incubator for 5 days.

[5] = Pharmacokinetic test in rats (IV and PO); assay type: in vivo; settings: rat, plasma, SD rats; for half-life: read-out: T½ (converted)
[6] = Pharmacokinetic test in mice (IV and PO); assay type: in vivo; settings: mouse, plasma, BALB/c mice; for half-life: read-out: T½ (converted)
hERG potassium current = target: T1, hERG potassium current (Homo sapiens, UniProt Q12809); assay: hERG inhibition test (whole-cell patch clamp, Qpatch); assay type: cell-based; settings: initial concentration 30 μM, 6 concentration points
T1 construct: expressed in transfected cells; host or cells: HEK293, cultured under G418 selection
Method: The BEK293 cells were cultured in a DiVEM medium containing […] and 0.8 mg/mL G418 at 37° C. with 5% o CO2. The cells were digested by TrypLE™ Express and centrifuged. The cell density was adjusted to 2×10^6 cells/mL. The cells were gently mixed for 15-20 min using a shaker equilibrated at room temperature, and subjected to patch clamping on a machine. The medium of the prepared cells was replaced with extracellular fluid. The intracellular fluid and the extracellular fluid were taken from the fluid pool, and respectively added to the intracellular fluid pool and the cell and the test substance pool of the QPlate chip. The voltage stimulation of the whole-cell hERG potassium current was recorded by the whole-cell patch clamp, and the test data was collected and stored by Qpatch. The compound was diluted 3-fold at an initial concentration of 30 μM, and 6 concentration points were set, with each drug concentration being set for two administrations over a period of at least 5 min. The current detected in compound-free extracellular fluid for each cell was served as its own control group, and the detection was repeated at least twice independently using two cells per concentration. All electrophysiological experiments were performed at room temperature.
For data analysis, the current acted for each drug concentration and the current of the blank control were standardized
and then the inhibition rate corresponding to each drug concentration was calculated
The mean and standard error were calculated for each concentration, and the half maximal inhibitory concentration of each compound was calculated:
The dose-dependent effect was fitted non-linearly using the above equation, wherein Y represents the inhibition rate, C represents the concentration of the test substance, IC50 is the half maximal inhibitory concentration, and HillSlope represents the Hill coefficient. Curve fitting and calculation of IC50 were performed by Graphpad software.

[7] = target: MAT2A recombinant protein (Homo sapiens, UniProt P31153); assay: MAT2A inhibitory activity (malachite green colorimetric enzyme assay); assay type: biochemical
Summary of the method: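 Compounds tested over 10 points, 3-fold dilutions, top final concentration 1000 nM. Enzyme reaction: MAT2A, L-methionine, ATP, room temperature, 60 min, in HEPES pH 7.5 buffer with KCl, MgCl2 and DTT; inorganic phosphate read colorimetrically (malachite green, A630). Inhibition vs log concentration fitted for IC50.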

Hut-78 cell strain = assay: Tumor cell proliferation inhibition assay (CellTiter-Glo), Hut-78; assay type: cell-based; settings: Homo sapiens, HuT78, 120 h, Hut-78 cells, 5-day treatment
Summary of the method: as §1

[8] = IC50 score class, read-out: Cell 96 h SDMA Inhibition (HCT116-MTAP−/−) (score)
[9] = read-out: Cell 96 h SDMA Inhibition (HCT116-MTAP−/−)
[10] = IC50 score class, read-out: Cell 96 h SDMA Inhibition (HCT116-MTAP+/+) (score)
[11] = read-out: Cell 96 h SDMA inhibition (HCT116-MTAP+/+)
[12] = HCT116-MTAP-knockout (−/−) cells, IC50 score, read-out: Tumor cell 5-day relative growth inhibition (HCT116-MTAP−/−) (nM), score
[13] = HCT116-MTAP-knockout (−/−) cells, IC50 value, read-out: Tumor cell 5-day relative growth inhibition (HCT116-MTAP−/−)
[14] = HCT116-MTAP wild-type (+/+) cells, IC50 score, read-out: Tumor cell 5-day relative growth inhibition (HCT116-MTAP+/+) (nM), score
[15] = HCT116-MTAP wild-type (+/+) cells, IC50 value, read-out: Tumor cell 5-day relative growth inhibition (HCT116-MTAP+/+)
[16] = IC50 score, read-out: Tumor cell 5-day relative growth inhibition (DOHH-2) (nM), score
[17] = IC50 value, read-out: Tumor cell 5-day relative growth inhibition (DOHH-2)
[18] = IC50 score class, read-out: MAT2A Inhibition (score)
[19] = IC50 score, read-out: Tumor cell 5-day relative growth inhibition (Hut-78) (nM), score
[20] = IC50 value, read-out: Tumor cell 5-day relative growth inhibition (Hut-78)

Sequence of MAT2A recombinant protein (P31153 whole entry): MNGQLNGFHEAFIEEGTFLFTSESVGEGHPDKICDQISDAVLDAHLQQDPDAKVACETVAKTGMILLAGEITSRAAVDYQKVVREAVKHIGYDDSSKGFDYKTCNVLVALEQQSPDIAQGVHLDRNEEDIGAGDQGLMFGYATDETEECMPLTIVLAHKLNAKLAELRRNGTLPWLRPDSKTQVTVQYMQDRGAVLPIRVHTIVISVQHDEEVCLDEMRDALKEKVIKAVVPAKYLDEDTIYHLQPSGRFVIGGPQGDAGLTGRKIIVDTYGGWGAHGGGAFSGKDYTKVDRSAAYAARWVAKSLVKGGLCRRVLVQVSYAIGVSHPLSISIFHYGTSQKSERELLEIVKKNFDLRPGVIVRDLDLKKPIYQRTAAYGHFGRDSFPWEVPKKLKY
T1 sequence (Q12809 whole entry): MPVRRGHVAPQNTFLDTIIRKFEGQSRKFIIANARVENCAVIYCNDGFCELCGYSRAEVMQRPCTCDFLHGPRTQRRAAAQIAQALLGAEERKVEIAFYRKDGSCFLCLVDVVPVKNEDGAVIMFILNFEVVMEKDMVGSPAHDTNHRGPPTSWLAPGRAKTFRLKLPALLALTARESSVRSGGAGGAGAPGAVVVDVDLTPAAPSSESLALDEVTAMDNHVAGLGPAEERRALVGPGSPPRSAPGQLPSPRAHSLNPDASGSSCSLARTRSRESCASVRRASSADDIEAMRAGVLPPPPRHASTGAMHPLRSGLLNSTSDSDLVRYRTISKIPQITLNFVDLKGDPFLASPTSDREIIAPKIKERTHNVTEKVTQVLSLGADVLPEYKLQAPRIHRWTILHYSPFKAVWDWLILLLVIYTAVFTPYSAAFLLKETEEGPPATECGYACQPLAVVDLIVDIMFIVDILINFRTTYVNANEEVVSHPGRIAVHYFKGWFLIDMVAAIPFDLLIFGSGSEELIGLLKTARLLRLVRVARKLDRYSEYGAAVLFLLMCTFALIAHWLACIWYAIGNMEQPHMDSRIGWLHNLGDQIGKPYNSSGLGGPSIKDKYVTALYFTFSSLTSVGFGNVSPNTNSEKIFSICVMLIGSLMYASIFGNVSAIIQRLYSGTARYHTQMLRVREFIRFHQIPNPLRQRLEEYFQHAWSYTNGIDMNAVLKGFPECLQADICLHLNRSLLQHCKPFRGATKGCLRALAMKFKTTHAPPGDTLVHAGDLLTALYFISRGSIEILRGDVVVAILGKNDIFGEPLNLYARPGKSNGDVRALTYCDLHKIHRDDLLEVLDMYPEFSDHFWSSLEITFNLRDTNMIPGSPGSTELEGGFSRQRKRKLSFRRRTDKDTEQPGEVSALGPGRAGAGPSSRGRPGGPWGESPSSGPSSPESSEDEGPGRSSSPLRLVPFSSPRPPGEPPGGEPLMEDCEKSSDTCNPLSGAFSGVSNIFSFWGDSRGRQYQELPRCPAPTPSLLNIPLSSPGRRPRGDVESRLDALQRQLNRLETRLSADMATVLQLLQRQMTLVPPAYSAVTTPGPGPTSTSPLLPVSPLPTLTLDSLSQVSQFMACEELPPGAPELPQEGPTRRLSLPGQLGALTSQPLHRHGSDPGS

| Structure (SMILES) | IC50 [1, 8] | IC50 [1, 9] | IC50 [2, 10] | IC50 [2, 11] | IC50 [3, 12] | IC50 [3, 13] | IC50 [4, 14] | IC50 [4, 15] | IC50 (DOHH-2 cell strain; [16]) | IC50 (DOHH-2 cell strain; [17]) | AUC ([5]; IV 1 mg/kg) | clearance ([5]; IV 1 mg/kg) | bioavailability ([5]; IV 1 mg/kg, PO 5 mg/kg) | half-life ([5]; IV 1 mg/kg) | AUC ([5]; PO 5 mg/kg) | half-life ([5]; PO 5 mg/kg) | IC50 [7, 18] | IC50 ([7]; read-out: MAT2A Inhibition) | also measured |
| --- | --- | --- | --- | --- | --- | --- | --- | --- | --- | --- | --- | --- | --- | --- | --- | --- | --- | --- | --- |
| COc1ccc(Cn2cc3c(n2)c(=O)n(-c2cccnc2)c2cc(Cl)ccc32)cc1 [Compound B28] | < 200 nM | 30.5 nM | 200 to 1000 nM | 342 nM | < 500 nM | 75 nM | < 500 nM | 279 nM | < 500 nM | 444 nM | 7.6 µM·h | 16 mL/min/kg | 60% | 1.7 h | 7.6 µM·h | 3.3 h |  |  |  |
| Cn1cc2c(n1)c(=O)n(-c1cccnc1)c1nc(C(F)(F)F)ccc21 [Compound B72] | < 200 nM | 76.9 nM | 200 to 1000 nM | 480 nM | < 500 nM | 138 nM | 500 to 2000 nM | 1680 nM | 500 to 2000 nM | 640 nM |  |  |  |  |  |  |  |  | AUC ([6]; IV 2 mg/kg): 7.43 µM·h; clearance ([6]; IV 2 mg/kg): 12.8 mL/min/kg; half-life ([6]; IV 2 mg/kg): 0.78 h; Vd ([6]; IV 2 mg/kg, read-out: Vz): 0.9 L/kg; AUC ([6]; PO 10 mg/kg): 65 µM·h; half-life ([6]; PO 10 mg/kg): 0.95 h; IC50 (hERG potassium current): > 30000 nM |
| Cn1ccc(Cn2cc3c(n2)c(=O)n(-c2cccnc2)c2cc(Cl)ccc32)n1 [Compound B48] | < 200 nM | 63.5 nM | > 3000 nM | 5140 nM | < 500 nM | 119 nM | 500 to 2000 nM | 1730 nM | 500 to 2000 nM | 880 nM |  |  |  |  |  |  | < 100 nM | 29.3 nM | IC50 (Hut-78 cell strain; [19]): < 500 nM; IC50 (Hut-78 cell strain; [20]): 81.8 nM |
| CCn1cc2c(n1)c(=O)n(-c1cccc(F)c1)c1cc(Cl)ccc21 [Compound B4] | 200 to 1000 nM | 782 nM | > 3000 nM | 9300 nM |  |  |  |  | ≥ 2000 nM |  | 2.5 µM·h | 21.7 mL/min/kg | 68% | 0.62 h | 7.95 µM·h | 2.1 h | < 100 nM | 38.8 nM |  |
| O=c1c2n[nH]cc2c2cc(F)c(Cl)cc2n1-c1cccnc1C1CC1 [Compound B425] | < 200 nM | 4.3 nM | > 3000 nM | > 10000 nM |  |  |  |  |  |  | 21 µM·h | 2 mL/min/kg | 116% | 14 h | 128 µM·h | 11.6 h | < 100 nM | 6 nM | IC50 ([3]; HCT116-MTAP−/− cells, IC50 class score, read-out: Tumor cell 5-day relative growth inhibition (HCT116-MTAP−/−) (nM), score): < 500 nM; IC50 ([3]; HCT116-MTAP−/− cells, read-out: Tumor cell 5-day relative growth inhibition (HCT116-MTAP−/−)): 260 nM; IC50 ([4]; HCT116-MTAP+/+ cells, IC50 class score, read-out: Tumor cell 5-day relative growth inhibition (HCT116-MTAP+/+) (nM), score): ≥ 2000 nM; IC50 ([4]; HCT116-MTAP+/+ cells, read-out: Tumor cell 5-day relative growth inhibition (HCT116-MTAP+/+)): > 10000 nM |
| CCn1cc2c(n1)c(=O)n(-c1cccnc1)c1cc(Cl)ccc21 [Compound B3] | < 200 nM |  | > 3000 nM | 4280 nM | < 500 nM | 228 nM |  |  | 500 to 2000 nM | 940 nM | 7.81 µM·h |  | 67% | 0.08 h | 26 µM·h | 0.97 h |  |  |  |
| Cn1cc2c(n1)c(=O)n(-c1ccc3cn[nH]c3c1)c1cc(Cl)ccc21 [Compound B57] | 200 to 1000 nM | 579 nM | > 3000 nM | > 3000 nM |  |  |  |  | ≥ 2000 nM | 2040 nM |  |  |  |  |  |  | < 100 nM | 54.3 nM | IC50 (Hut-78 cell strain; [19]): ≥ 2000 nM; IC50 (Hut-78 cell strain; [20]): 2130 nM |
